Test: Encapsulation efficiency of the agent in liposomes (free agent removed by gel filtration)
Assay type: physicochemical
Method: In an embodiment, liposomes composed of DOPE/Cholesterol/DSPE-MPEG (54:36:10, molar ratio) were prepared using the ethanolic injection method. Briefly, lipids (DOPE, cholesterol and DSPE-MPEG) were dissolved in ethanol (5% in the classic ethanol injection method; 50% in the new proposed pre-concentration method, relative to the initial 20% aqueous phase) at 60° C.
The solution was injected under stirring to an aqueous solution (phosphate buffered saline, PBS). This process is done at 70° C., remaining during the necessary time to evaporate all the ethanol volume.
In the classic ethanolic injection method liposomes are extruded to reduce their size. In the pre-concentration method, after ethanol evaporation or tangential flow filtration, liposomal dispersion is diluted five times in PBS (remaining 80% of volume is added). The free therapeutic or imaging agent that was not incorporated into liposomes was removed from the samples after passage through a gel filtration chromatography column (GE Healthcare) with 5 kDa cut-off (PD-10 Desalting Columns containing 8.3 mL of Sephadex G-25 Medium). Hydrophilic therapeutic or imaging agents (e.g. methotrexate and doxorubicin) are present in this aqueous phase in the classic ethanol injection method and in the new proposed pre-concentration method. […]

amount of the agent used that was encapsulated (before optimization of the production method): 3-5%
encapsulation efficiencies (pre-concentration method, 1:1 ethanol:aqueous phase, 2 steps): ~40%
SMILES: CN(Cc1cnc2nc(N)nc(N)c2n1)c1ccc(C(=O)N[C@@H](CCC(=O)O)C(=O)O)cc1 [methotrexate]
